Assay results published in patent publication US11065263B2, “Sterol composition in pumpkin seed oil and application thereof, and drug for treating benign prostatic hyperplasia” (Hunan Zhongkewentai Bio-tech co.Ltd, priority 2019, dated 2021).

Legend:
Format in all cases: in vivo, SD (Sprague Dawley) rats
[1] = test system: benign prostatic hyperplasia rats treated with testosterone propionate; test: prostate weight and prostate index in benign prostatic hyperplasia rats treated with testosterone propionate; settings: finasteride group
Procedure: : modeling, particularly comprising steps of: […]: respectively weighing six groups of SD rats; […] The drug is administrated by gavage once a day; after administrating for consecutive 6 days, administration is stopped for one day; and an administration cycle is 4 week. Respectively weighing SD rats of six groups two hours after last administration and after fasting for 12 hours; killing the SD rats, separating the prostate of the SD rats through the tweezers, and weighing the prostate;

[2] = test system: prostate tissue of benign prostatic hyperplasia rats; test: prostate tissue appearance and HE stain morphology in benign prostatic hyperplasia rats; settings: finasteride group, 0.28 mg/kg
Excerpt: The drug is administrated by gavage once a day; after administrating for consecutive 6 days, administration is stopped for one day; and an administration cycle is 4 week. killing the SD rats, separating the prostate of the SD rats through the tweezers, and weighing the prostate; […]

[3] = test system: SRC-1 (steroid receptor coactivator-1); test: immunohistochemical measurement of SRC-1 in the prostate; settings: finasteride group, 0.28 mg/kg
Procedure: S3023: according to a dose of 4 mg/kg, which is calculated through equivalent conversion according to the body surface areas of humans and animals, hypodermically injecting the testosterone propionate injection to each SD rat for consecutive 30 days, and injecting normal saline of same volume to the SD rats of normal group, so as to finish modeling.
The high-dose group adopts an administration dose of 10 mg/kg (which is calculated through equivalent conversion according to the body surface areas of humans and animals; when the weight of the SD rat is 1 kg, 10 mg of the sterol composition in the pumpkin seed oil prepared through the example 1 is administrated), the medium-dose group adopts an administration dose of 3.3 mg/kg, and the low-dose group adopts an administration dose of 1.1 mg/kg, which respectively correspond to 20 times, 6.66 times, and 2.22 times the clinical dose. Before drug administration, suspensions of 4.5 mg/mL, 1.5 mg/mL, and 0.5 mg/mL are respectively prepared with the corn oil. […] The drug is administrated by gavage once a day; after administrating for consecutive 6 days, administration is stopped for one day; and an administration cycle is 4 week. […]

[4] = test system: 5α-reductase; test: RT-qPCR genetic expression of 5α-reductase in the prostate; settings: finasteride group, 0.28 mg/kg, compared with the model group
[5] = rat weight after 4 week administration in benign prostatic hyperplasia rats; settings: finasteride group, 0.28 mg/kg by gavage once a day

With CC(C)(C)NC(=O)[C@H]1CC[C@H]2[C@@H]3CC[C@H]4NC(=O)C=C[C@]4(C)[C@H]3CC[C@]12C [Finasteride, finasteride] the “decrease of prostate weight compared with the model group” value ([1]; 0.28 mg/kg) was 19.1%, the Prostate weight ([1]; 0.28 mg/kg by gavage once a day, 4 week) was 868.4 ± 188.3 mg and the “HE stain morphology of the prostate tissue (FIG. 3)” value [2] was “part of the multiple-layer epithelial cells in the prostate tissue recover to the single-layer epithelial cells”. The “volume of the prostate tissue compared with the model group (FIG. 2)” value [2] was “obviously decreased”, the “genetic expression of SRC-1, immunohistochemical method (FIG. 4)” value [3] was “obviously decreased” and the “genetic expression quantity of 5α-reductase, RT-qPCR (FIG. 5)” value [4] was “obviously decreased”. It also gave a Rat weight [5] of 439.2 ± 32.7 g.
